Experimental data from PMC5218480 (PLoS ONE, 2017).

Test system: MV-4-11 cells
Assay: Gene expression microarray analysis (Affymetrix PrimeView) and GSEA
Type: cell-based, human
Parameters: RFU PODN (11730768_x_at) / Fold change /veh PODN (11730768_x_at) / RFU LINC00158 (11744669_a_at) / Fold change /veh LINC00158 (11744669_a_at) / RFU DUSP10 (11751237_a_at) / Fold change /veh DUSP10 (11751237_a_at) / RFU ID3 (11757404_x_at) / Fold change /veh ID3 (11757404_x_at) / RFU PLEKHG5 (11737974_s_at) / Fold change /veh PLEKHG5 (11737974_s_at) / RFU LRRC4B (11730491_at) / Fold change /veh LRRC4B (11730491_at) / RFU GIMAP4 (11747438_a_at) / Fold change /veh GIMAP4 (11747438_a_at) / RFU KRT8 (11758183_x_at) / Fold change /veh KRT8 (11758183_x_at) / RFU CNN1 (11734310_a_at) / Fold change /veh CNN1 (11734310_a_at) / RFU VPS37D (11726825_at) / Fold change /veh VPS37D (11726825_at) / RFU C10orf10 (11716522_x_at) / Fold change /veh C10orf10 (11716522_x_at) / RFU KIR2DL2 /// KIR2DL4 /// KIR2DL5A /// KIR2DL5B /// KIR2DS1 /// KIR2DS2 /// KIR2DS3 /// KIR2DS4 /// KIR3DL3 /// KIR3DL3 /// KIR3DS1 (11738374_at) / Fold change /veh KIR2DL2 /// KIR2DL4 /// KIR2DL5A /// KIR2DL5B /// KIR2DS1 /// KIR2DS2 /// KIR2DS3 /// KIR2DS4 /// KIR3DL3 /// KIR3DL3 /// KIR3DS1 (11738374_at) / RFU C1QL1 (11718748_at) / Fold change /veh C1QL1 (11718748_at) / RFU TMPRSS4 (11747572_a_at) / Fold change /veh TMPRSS4 (11747572_a_at) / RFU HAMP (11756126_x_at) / Fold change /veh HAMP (11756126_x_at) / RFU RNFT2 (11725882_a_at) / Fold change /veh RNFT2 (11725882_a_at) / RFU NR4A2 (11747474_a_at) / Fold change /veh NR4A2 (11747474_a_at) / RFU ABCC12 (11746883_a_at) / Fold change /veh ABCC12 (11746883_a_at) / RFU TMEM136 (11760407_x_at) / Fold change /veh TMEM136 (11760407_x_at) / RFU CLDN22 /// WWC2 (11732394_at) / Fold change /veh CLDN22 /// WWC2 (11732394_at) / RFU HLA-DPB1 (11760878_x_at) / Fold change /veh HLA-DPB1 (11760878_x_at) / RFU SPINT1 (11716480_a_at) / Fold change /veh SPINT1 (11716480_a_at) / RFU GAP43 (11754022_s_at) / Fold change /veh GAP43 (11754022_s_at) / RFU A4GNT (11735810_at) / Fold change /veh A4GNT (11735810_at) / RFU PRB3 (11715151_x_at) / Fold change /veh PRB3 (11715151_x_at) / RFU TUBB4B (11761932_at) / Fold change /veh TUBB4B (11761932_at) / RFU CAPN14 (11732068_a_at) / Fold change /veh CAPN14 (11732068_a_at) / RFU TMCC2 (11721928_a_at) / Fold change /veh TMCC2 (11721928_a_at) / RFU IRGQ (11745062_a_at) / Fold change /veh IRGQ (11745062_a_at) / RFU FAM174B (11720279_a_at) / Fold change /veh FAM174B (11720279_a_at) / RFU TMPRSS4 (11748680_a_at) / Fold change /veh TMPRSS4 (11748680_a_at) / RFU FAM212B (11763350_a_at) / Fold change /veh FAM212B (11763350_a_at) / RFU PLEKHG5 (11743358_a_at) / Fold change /veh PLEKHG5 (11743358_a_at) / RFU ZSCAN30 (11745921_a_at) / Fold change /veh ZSCAN30 (11745921_a_at) / RFU CMKLR1 (11741424_a_at) / Fold change /veh CMKLR1 (11741424_a_at) / RFU LOC101060620 /// MAPK8IP1 (11723275_at) / Fold change /veh LOC101060620 /// MAPK8IP1 (11723275_at) / RFU SPTSSB (11747773_x_at) / Fold change /veh SPTSSB (11747773_x_at) / RFU PRSS12 (11739890_at) / Fold change /veh PRSS12 (11739890_at) / RFU BIN1 (11741810_x_at) / Fold change /veh BIN1 (11741810_x_at) / RFU WNT11 (11732464_a_at) / Fold change /veh WNT11 (11732464_a_at) / RFU C10orf10 (11716521_a_at) / Fold change /veh C10orf10 (11716521_a_at) / RFU C5orf56 (11738089_at) / Fold change /veh C5orf56 (11738089_at) / RFU CYB561 (11721691_x_at) / Fold change /veh CYB561 (11721691_x_at) / RFU ANKRD19P (11752326_a_at) / Fold change /veh ANKRD19P (11752326_a_at) / RFU OR2T12 /// OR2T33 /// OR2T8 (11738714_s_at) / Fold change /veh OR2T12 /// OR2T33 /// OR2T8 (11738714_s_at) / RFU VCAN (11748164_a_at) / Fold change /veh VCAN (11748164_a_at) / RFU JSRP1 (11732532_at) / Fold change /veh JSRP1 (11732532_at) / RFU KRTAP10-11 (11738290_x_at) / Fold change /veh KRTAP10-11 (11738290_x_at) / RFU MYO3A (11730013_a_at) / Fold change /veh MYO3A (11730013_a_at) / RFU EBF3 (11725865_a_at) / Fold change /veh EBF3 (11725865_a_at) / RFU CAMK2N1 (11719241_x_at) / Fold change /veh CAMK2N1 (11719241_x_at) / RFU C5orf56 (11738088_a_at) / Fold change /veh C5orf56 (11738088_a_at) / RFU OLFML3 (11715873_a_at) / Fold change /veh OLFML3 (11715873_a_at) / RFU LOC100653217 /// NTM (11731650_a_at) / Fold change /veh LOC100653217 /// NTM (11731650_a_at) / RFU MAPK11 (11762145_a_at) / Fold change /veh MAPK11 (11762145_a_at) / RFU FIZ1 (11724087_x_at) / Fold change /veh FIZ1 (11724087_x_at) / RFU OASL (11726364_x_at) / Fold change /veh OASL (11726364_x_at) / RFU SOX15 (11748057_x_at) / Fold change /veh SOX15 (11748057_x_at) / RFU CD79A (11719716_a_at) / Fold change /veh CD79A (11719716_a_at) / RFU HIST1H1D (11736915_at) / Fold change /veh HIST1H1D (11736915_at) / RFU CASKIN2 (11723855_a_at) / Fold change /veh CASKIN2 (11723855_a_at) / RFU LOC730098 (11760151_x_at) / Fold change /veh LOC730098 (11760151_x_at) / RFU OR4N2 (11742367_at) / Fold change /veh OR4N2 (11742367_at) / RFU PRRT2 (11749266_a_at) / Fold change /veh PRRT2 (11749266_a_at) / RFU SNX32 (11753110_a_at) / Fold change /veh SNX32 (11753110_a_at) / RFU CDHR5 (11726645_a_at) / Fold change /veh CDHR5 (11726645_a_at) / RFU RCAN1 (11760418_a_at) / Fold change /veh RCAN1 (11760418_a_at) / RFU FAM167A (11723789_a_at) / Fold change /veh FAM167A (11723789_a_at) / RFU FAM26E (11764081_at) / Fold change /veh FAM26E (11764081_at) / RFU ISYNA1 (11749810_s_at) / Fold change /veh ISYNA1 (11749810_s_at) / RFU ACY1 (11761880_at) / Fold change /veh ACY1 (11761880_at) / RFU 11764098_at / Fold change /veh 11764098_at / RFU SAMD14 (11745864_x_at) / Fold change /veh SAMD14 (11745864_x_at) / RFU NPB (11741838_a_at) / Fold change /veh NPB (11741838_a_at) / RFU TMPRSS6 (11731388_a_at) / Fold change /veh TMPRSS6 (11731388_a_at) / RFU KRTAP10-2 (11738614_at) / Fold change /veh KRTAP10-2 (11738614_at) / RFU ARHGAP8 /// PRR5-ARHGAP8 (11727945_x_at) / Fold change /veh ARHGAP8 /// PRR5-ARHGAP8 (11727945_x_at) / RFU KRTAP5-7 /// NADSYN1 (11734609_at) / Fold change /veh KRTAP5-7 /// NADSYN1 (11734609_at) / RFU RASL12 (11751679_a_at) / Fold change /veh RASL12 (11751679_a_at) / RFU CDKN2B (11736163_a_at) / Fold change /veh CDKN2B (11736163_a_at) / RFU PRF1 (11729649_at) / Fold change /veh PRF1 (11729649_at) / RFU, ZNF638 /// ZNF638-IT1 / Fold change vs veh, ZNF638 /// ZNF638-IT1 / RFU, PANK3 / Fold change vs veh, PANK3 / RFU, SH3YL1 / Fold change vs veh, SH3YL1 / RFU, ZEB2 / Fold change vs veh, ZEB2 / RFU, NRIP1 / Fold change vs veh, NRIP1 / RFU, PTTG1IP / Fold change vs veh, PTTG1IP / RFU, CAPN2 / Fold change vs veh, CAPN2 / RFU, MED14 / Fold change vs veh, MED14 / RFU, SNORA58 / Fold change vs veh, SNORA58 / RFU, C1orf63 / Fold change vs veh, C1orf63 / RFU, LRRFIP1 / Fold change vs veh, LRRFIP1 / RFU, NDUFAF7 / Fold change vs veh, NDUFAF7 / RFU, SLC12A2 / Fold change vs veh, SLC12A2 / RFU, IBTK / Fold change vs veh, IBTK / RFU, ESF1 / Fold change vs veh, ESF1 / Fold change vs veh, TMEM50B / RFU, TAOK1 / Fold change vs veh, TAOK1 / RFU, ACBD3 / Fold change vs veh, ACBD3 / RFU, TMA16 / Fold change vs veh, TMA16 / RFU, RWDD3 / Fold change vs veh, RWDD3 / RFU, BCAT1 / Fold change vs veh, BCAT1 / RFU, EDEM3 / Fold change vs veh, EDEM3 / RFU, TMEM33 / Fold change vs veh, TMEM33 / RFU, WDR75 / Fold change vs veh, WDR75 / RFU, AHCTF1 / Fold change vs veh, AHCTF1 / RFU, TFRC / Fold change vs veh, TFRC / RFU, ZDHHC17 / Fold change vs veh, ZDHHC17 / RFU, NOM1 / Fold change vs veh, NOM1 / RFU, ARL8B / Fold change vs veh, ARL8B / RFU, ZBTB11 / Fold change vs veh, ZBTB11 / RFU, TAMM41 / Fold change vs veh, TAMM41 / RFU, KIAA1704 /// LOC100996395 / Fold change vs veh, KIAA1704 /// LOC100996395 / RFU, ING1 / Fold change vs veh, ING1 / RFU, TRMT61B / Fold change vs veh, TRMT61B / RFU, FUBP3 / Fold change vs veh, FUBP3 / RFU, TP53 / Fold change vs veh, TP53 / RFU, TNKS2 / Fold change vs veh, TNKS2 / RFU, ZFP14 / Fold change vs veh, ZFP14 / RFU, ACTR2 / Fold change vs veh, ACTR2 / RFU, PPP3R1 / Fold change vs veh, PPP3R1 / RFU, PIK3R1 / Fold change vs veh, PIK3R1 / RFU, HNRNPA1 / Fold change vs veh, HNRNPA1 / RFU, RNF170 / Fold change vs veh, RNF170 / RFU, ZNF28 / Fold change vs veh, ZNF28 / RFU, RNGTT / Fold change vs veh, RNGTT / RFU, OGT / Fold change vs veh, OGT / RFU, BRD1 / Fold change vs veh, BRD1 / RFU, MARS / Fold change vs veh, MARS / RFU, ZNF655 / Fold change vs veh, ZNF655 / RFU, FAHD1 / Fold change vs veh, FAHD1 / RFU, BDP1 / Fold change vs veh, BDP1 / RFU, LRRCC1 / Fold change vs veh, LRRCC1 / RFU, ARID1A / Fold change vs veh, ARID1A / RFU, ZNF146 / Fold change vs veh, ZNF146 / RFU, ZNF330 / Fold change vs veh, ZNF330 / RFU, GPN3 / Fold change vs veh, GPN3 / RFU, C9orf123 / Fold change vs veh, C9orf123 / RFU, N4BP2L2 / Fold change vs veh, N4BP2L2 / RFU, ARFIP1 / Fold change vs veh, ARFIP1 / RFU, FAM179B / Fold change vs veh, FAM179B / RFU, BCL10 / Fold change vs veh, BCL10 / RFU, UHRF1BP1L / Fold change vs veh, UHRF1BP1L / RFU, BET1 / Fold change vs veh, BET1 / RFU, CNOT2 / Fold change vs veh, CNOT2 / RFU, ZNF268 / Fold change vs veh, ZNF268 / Fold change vs veh, ZNF507 / RFU, DGCR2 / Fold change vs veh, DGCR2 / RFU, WDSUB1 / Fold change vs veh, WDSUB1 / Fold change vs veh, HSP90B1 /// MIR3652 / RFU, ADSS / Fold change vs veh, ADSS / RFU, GK / Fold change vs veh, GK / RFU, ZNF148 / Fold change vs veh, ZNF148 / RFU, TAF9 / Fold change vs veh, TAF9 / RFU, SLC1A5 / Fold change vs veh, SLC1A5 / RFU, SLMO2 / Fold change vs veh, SLMO2 / RFU, ABCC4 / Fold change vs veh, ABCC4 / RFU, LOC101060439 /// RAP1B / Fold change vs veh, LOC101060439 /// RAP1B / RFU, RFX7 / Fold change vs veh, RFX7 / RFU, GTPBP10 / Fold change vs veh, GTPBP10 / RFU, CNEP1R1 / Fold change vs veh, CNEP1R1 / RFU, BIVM-ERCC5 /// ERCC5 / Fold change vs veh, BIVM-ERCC5 /// ERCC5 / RFU, ILF3 / Fold change vs veh, ILF3 / RFU 11762660_at / Fold change /veh 11762660_at / RFU VCAN (11757783_s_at) / Fold change /veh VCAN (11757783_s_at) / RFU DDX43 (11728927_at) / Fold change /veh DDX43 (11728927_at) / RFU KRT8 (11758188_x_at) / Fold change /veh KRT8 (11758188_x_at) / RFU NKD1 (11759106_at) / Fold change /veh NKD1 (11759106_at) / RFU SRD5A1 (11742802_a_at) / Fold change /veh SRD5A1 (11742802_a_at) / RFU TPSAB1 /// TPSB2 (11721975_s_at) / Fold change /veh TPSAB1 /// TPSB2 (11721975_s_at) / RFU GSTM3 (11746129_a_at) / Fold change /veh GSTM3 (11746129_a_at) / RFU IL23R (11737362_x_at) / Fold change /veh IL23R (11737362_x_at) / RFU TMEM51 (11727254_a_at) / Fold change /veh TMEM51 (11727254_a_at) / RFU PIWIL2 (11732686_x_at) / Fold change /veh PIWIL2 (11732686_x_at) / RFU ORM1 (11744905_x_at) / Fold change /veh ORM1 (11744905_x_at) / RFU CCDC152 (11743942_at) / Fold change /veh CCDC152 (11743942_at) / RFU ECM1 (11717891_a_at) / Fold change /veh ECM1 (11717891_a_at) / RFU IL23R (11748794_a_at) / Fold change /veh IL23R (11748794_a_at) / RFU TNFAIP8L3 (11732012_x_at) / Fold change /veh TNFAIP8L3 (11732012_x_at) / RFU MBOAT4 (11741988_at) / Fold change /veh MBOAT4 (11741988_at) / RFU 11764193_at / Fold change /veh 11764193_at / RFU TMEM53 (11763286_at) / Fold change /veh TMEM53 (11763286_at) / RFU MAGEB2 (11727129_at) / Fold change /veh MAGEB2 (11727129_at) / RFU TMEM200A (11744735_a_at) / Fold change /veh TMEM200A (11744735_a_at) / RFU CCDC152 (11751479_a_at) / Fold change /veh CCDC152 (11751479_a_at) / RFU FAM211A (11726209_a_at) / Fold change /veh FAM211A (11726209_a_at) / RFU RGS16 (11746705_a_at) / Fold change /veh RGS16 (11746705_a_at) / RFU VCAN (11755009_s_at) / Fold change /veh VCAN (11755009_s_at) / RFU RHOB (11743442_s_at) / Fold change /veh RHOB (11743442_s_at) / RFU RGS16 (11720943_a_at) / Fold change /veh RGS16 (11720943_a_at) / RFU RGS16 (11720944_at) / Fold change /veh RGS16 (11720944_at) / RFU, VPS4B / Fold change vs veh, VPS4B / RFU, CREB1 / Fold change vs veh, CREB1 / RFU, DNAJC13 / Fold change vs veh, DNAJC13 / RFU, GNAQ / Fold change vs veh, GNAQ / RFU, CDK5R1 / Fold change vs veh, CDK5R1 / RFU, ZRANB3 / Fold change vs veh, ZRANB3 / RFU, CUL4A / Fold change vs veh, CUL4A / RFU, CCNY / Fold change vs veh, CCNY / RFU, UFL1 / Fold change vs veh, UFL1 / RFU, COG3 / Fold change vs veh, COG3 / RFU, DIAPH2 / Fold change vs veh, DIAPH2 / RFU, SKA2 / Fold change vs veh, SKA2 / RFU, AFF3 / Fold change vs veh, AFF3 / RFU, LMF1 / Fold change vs veh, LMF1 / RFU, IPO11 / Fold change vs veh, IPO11 / RFU, DFFB / Fold change vs veh, DFFB / RFU, FOXP1 / Fold change vs veh, FOXP1 / RFU, CARD8 / Fold change vs veh, CARD8 / RFU, STRN3 / Fold change vs veh, STRN3 / RFU, ADK / Fold change vs veh, ADK / RFU, RASSF2 / Fold change vs veh, RASSF2 / RFU, WIPF1 / Fold change vs veh, WIPF1 / RFU, LARP1B / Fold change vs veh, LARP1B / RFU, RASA1 / Fold change vs veh, RASA1 / RFU, RB1 / Fold change vs veh, RB1 / RFU, PPFIA1 / Fold change vs veh, PPFIA1 / RFU, MAT2A / Fold change vs veh, MAT2A / RFU, CCT5 / Fold change vs veh, CCT5 / RFU, WDR92 / Fold change vs veh, WDR92 / RFU, CUX1 / Fold change vs veh, CUX1 / RFU, TTC7A / Fold change vs veh, TTC7A / RFU, TMEM135 / Fold change vs veh, TMEM135 / RFU, DEPTOR / Fold change vs veh, DEPTOR / RFU, CPM / Fold change vs veh, CPM / RFU, DNAJB6 / Fold change vs veh, DNAJB6 / RFU, CACNA2D3 / Fold change vs veh, CACNA2D3 / RFU, DTX4 / Fold change vs veh, DTX4 / RFU, TFCP2 / Fold change vs veh, TFCP2 / RFU, GMCL1 /// GMCL1P1 / Fold change vs veh, GMCL1 /// GMCL1P1 / RFU, AEBP2 / Fold change vs veh, AEBP2 / RFU, SNHG1 /// SNORD22 /// SNORD25 /// SNORD26 /// SNORD27 /// SNORD28 /// SNORD29 /// SNORD31 / Fold change vs veh, SNHG1 /// SNORD22 /// SNORD25 /// SNORD26 /// SNORD27 /// SNORD28 /// SNORD29 /// SNORD31 / Fold change (Aza/veh), C12orf56 (ProbeSet 11735607_a_at) / Fold change (ACY-1035/veh), C12orf56 (ProbeSet 11735607_a_at) / Fold change (Aza/veh), FGFR1OP (ProbeSet 11751329_s_at) / Fold change (ACY-1035/veh), FGFR1OP (ProbeSet 11751329_s_at) / Fold change (Aza/veh), VPS36 (ProbeSet 11739960_a_at) / Fold change (ACY-1035/veh), VPS36 (ProbeSet 11739960_a_at) / RFU SYPL1 (11715823_x_at) / Fold change /veh SYPL1 (11715823_x_at) / RFU IGFBP7 (11715501_s_at) / Fold change /veh IGFBP7 (11715501_s_at) / RFU REEP3 (11722064_at) / Fold change /veh REEP3 (11722064_at) / RFU IGLL1 (11728026_x_at) / Fold change /veh IGLL1 (11728026_x_at): dose or concentration left out as unconfirmed
Settings: ProbeSet 11745428_a_at; LIST D

## Nc1ncn([C@@H]2O[C@H](CO)[C@@H](O)[C@H]2O)c(=O)n1 [azacitidine]
  RFU, DFFB: 92.76 RFU
